Reference: US10105357B2, “Indication of antibiotic drugs for preparation of cancer inhibition pharmaceutical composition” (LAUNX BIOMEDICAL CO., LTD., priority 2014, dated 2018)
Read-outs that look alike come from different tables or passages of the source.

How the values were obtained:
Format in all cases: cell-based, human
[1] = system: HepG2 (Hepatocellular Carcinoma); assay: Cell viability analysis, hepatic cancer HepG2; conditions: Homo sapiens
[2] = system: MCF7 (Mammary Gland, Adenocarcinoma); assay: Cell viability analysis, breast cancer MCF7; conditions: Homo sapiens
[3] = system: PC3 (p53−) (Prostate Adenocarcinoma); assay: Cell viability analysis, prostate cancer PC3; conditions: Homo sapiens
[4] = system: HI650 (Lung Adenocarcinoma); assay: Cell viability analysis, lung cancer HI650; conditions: Homo sapiens
[5] = system: HeLa (Cervix Adenocarcinoma); assay: Cell viability analysis, cervical cancer HeLa; conditions: Homo sapiens, HeLa
[6] = system: A549 (Lung Adenocarcinoma); assay: Cell viability analysis, lung cancer A549; conditions: Homo sapiens
[7] = system: AGS (Gastric Adenocarcinoma); assay: Cell viability analysis, gastric cancer AGS; conditions: Homo sapiens
[8] = system: cancer cell lines; assay: Cell viability analysis (WST-1) on cancer cell lines; conditions: drug 10 μM, 72 hours, WST-1; Table 3
[9] = system: MKN-45 (Gastric Adenocarcinoma); assay: Cell viability analysis, gastric cancer MKN-45; conditions: Homo sapiens
[10] = system: HL-60 (Acute Promyelocytic Leukemia); assay: Cell viability analysis, leukemia HL-60; conditions: Homo sapiens
[11] = system: LoVo (Colorectal Adenocarcinoma); assay: Cell viability analysis, colon cancer LoVo; conditions: Homo sapiens, LoVo
[12] = system: A375 (Amelanotic Melanoma); assay: Cell viability analysis, skin cancer A375; conditions: Homo sapiens
[13] = system: TSGH-8301 (Urinary Bladder Carcinoma); assay: Cell viability analysis, bladder cancer TSGH-8301; conditions: Homo sapiens
[14] = HepG2, 72 h, drug 10 μM, 72 hours, WST-1, OD450 nm, read-out: cell viability (survival rate), HepG2
[15] = MCF7, 72 h, drug 10 μM, 72 hours, WST-1, OD450 nm, read-out: cell viability (survival rate), MCF7
[16] = 72 h, drug 10 μM, 72 hours, WST-1, OD450 nm, read-out: cell viability (survival rate), PC3
[17] = NCI-H1650, 72 h, drug 10 μM, 72 hours, WST-1, OD450 nm, read-out: cell viability (survival rate), H1650
[18] = 72 h, drug 10 μM, 72 hours, WST-1, OD450 nm, read-out: cell viability (survival rate), HeLa
[19] = A549, 72 h, drug 10 μM, 72 hours, WST-1, OD450 nm, read-out: cell viability (survival rate), A549
[20] = 72 h, drug 10 μM, 72 hours, WST-1, OD450 nm, read-out: cell viability (survival rate), AGS
[21] = MKN-45, 72 h, drug 10 μM, 72 hours, WST-1, OD450 nm, read-out: cell viability (survival rate), MKN-45
[22] = HL-60, 72 h, drug 10 μM, 72 hours, WST-1, OD450 nm, read-out: cell viability (survival rate), HL-60
[23] = 72 h, read-out: cell viability (survival rate), LoVo, drug 10 μM, 72 hours, WST-1, OD450 nm
[24] = A-375, 72 h, drug 10 μM, 72 hours, WST-1, OD450 nm, read-out: cell viability (survival rate), A375
[25] = 72 h, drug 10 μM, 72 hours, WST-1, OD450 nm, read-out: cell viability (survival rate), TSGH
[26] = HepG2, 72 h, read-out: cell viability (survival rate), HepG2, drug 10 μM, 72 hours, WST-1, OD450 nm
[27] = MCF7, 72 h, read-out: cell viability (survival rate), MCF7, drug 10 μM, 72 hours, WST-1, OD450 nm
[28] = 72 h, read-out: cell viability (survival rate), PC3, drug 10 μM, 72 hours, WST-1, OD450 nm
[29] = NCI-H1650, 72 h, read-out: cell viability (survival rate), H1650, drug 10 μM, 72 hours, WST-1, OD450 nm
[30] = 72 h, read-out: cell viability (survival rate), HeLa, drug 10 μM, 72 hours, WST-1, OD450 nm
[31] = A549, 72 h, read-out: cell viability (survival rate), A549, drug 10 μM, 72 hours, WST-1, OD450 nm
[32] = 72 h, read-out: cell viability (survival rate), AGS, drug 10 μM, 72 hours, WST-1, OD450 nm
[33] = MKN-45, 72 h, read-out: cell viability (survival rate), MKN-45, drug 10 μM, 72 hours, WST-1, OD450 nm
[34] = HL-60, 72 h, read-out: cell viability (survival rate), HL-60, drug 10 μM, 72 hours, WST-1, OD450 nm
[35] = A-375, 72 h, read-out: cell viability (survival rate), A375, drug 10 μM, 72 hours, WST-1, OD450 nm
[36] = 72 h, read-out: cell viability (survival rate), TSGH, drug 10 μM, 72 hours, WST-1, OD450 nm
[37] = HepG2, drug 10 μM, 72 hours, WST-1, OD450 nm, read-out: cell viability (survival rate), HepG2
[38] = MCF7, drug 10 μM, 72 hours, WST-1, OD450 nm, read-out: cell viability (survival rate), MCF7
[39] = drug 10 μM, 72 hours, WST-1, OD450 nm, read-out: cell viability (survival rate), PC3
[40] = NCI-H1650, drug 10 μM, 72 hours, WST-1, OD450 nm, read-out: cell viability (survival rate), H1650
[41] = drug 10 μM, 72 hours, WST-1, OD450 nm, read-out: cell viability (survival rate), HeLa
[42] = A549, drug 10 μM, 72 hours, WST-1, OD450 nm, read-out: cell viability (survival rate), A549
[43] = drug 10 μM, 72 hours, WST-1, OD450 nm, read-out: cell viability (survival rate), AGS
[44] = MKN-45, drug 10 μM, 72 hours, WST-1, OD450 nm, read-out: cell viability (survival rate), MKN-45
[45] = HL-60, drug 10 μM, 72 hours, WST-1, OD450 nm, read-out: cell viability (survival rate), HL-60
[46] = drug 10 μM, 72 hours, WST-1, OD450 nm, read-out: cell viability (survival rate), LoVo
[47] = A-375, drug 10 μM, 72 hours, WST-1, OD450 nm, read-out: cell viability (survival rate), A375
[48] = drug 10 μM, 72 hours, WST-1, OD450 nm, read-out: cell viability (survival rate), TSGH

SMILES | viability at 10 µM [1, 14] | viability at 10 µM [2, 15] | viability at 10 µM [3, 16] | viability at 10 µM [4, 17] | viability at 10 µM [5, 18] | viability at 10 µM [6, 19] | viability at 10 µM [7, 20] | inhibition effect on different cancer cell lines [8] | viability at 10 µM [11, 23] | viability at 10 µM [1, 26] | viability at 10 µM [2, 27] | viability at 10 µM [3, 28] | viability at 10 µM [4, 29] | viability at 10 µM [5, 30] | viability at 10 µM [6, 31] | viability at 10 µM [7, 32] | viability at 10 µM [9, 33] | viability at 10 µM [10, 34] | viability at 10 µM [12, 35] | viability at 10 µM [13, 36] | other results
Cc1cn([C@H]2C=C[C@@H](CO)O2)c(=O)[nH]c1=O [Stavudine] | 97.1% | 56.6% | 73.5% | 50.2% | 98.1% | 38.9% | 39.2% | significant inhibition effect | 70.7% |  |  |  |  |  |  |  |  |  |  |  | viability at 10 µM [9, 21]: 66.8%; viability at 10 µM [10, 22]: 96%; viability at 10 µM [12, 24]: 56.1%; viability at 10 µM [13, 25]: 112%
Nc1nc(=O)n([C@@H]2CS[C@H](CO)O2)cc1F [Emtricitabine (Emtriva), Emtricitabine] |  |  |  |  |  |  |  | significant inhibition effect | 82.6% | 110% | 74% | 77.1% | 61% | 79.6% | 86.9% | 48% | 62.8% | 119% | 84% | 85.3% | 
COc1cc(NS(=O)(=O)c2ccc(N)cc2)nc(OC)n1 [Sulphadimethoxine] |  |  |  |  |  |  |  | significant inhibition effect | 70.8% | 90.3% | 94.3% | 94% | 83.1% | 68.8% | 100% | 99.3% | 72% | 120% | 76% | 132% | 
Nc1ccc(S(=O)(=O)Nc2nccs2)cc1 [Sulfathiazole] |  |  |  |  |  |  |  | significant inhibition effect | 78.1% | 65.7% | 60.1% | 94.9% | 38.8% | 47.7% | 47.2% | 54.6% | 30.8% | 96.7% | 30.8% | 54.5% | 
CC(=O)S[C@@H]1CC2=CC(=O)CC[C@]2(C)[C@H]2CC[C@@]3(C)[C@@H](CC[C@@]34CCC(=O)O4)[C@H]12 [Spironolactone] |  |  |  |  |  |  |  | significant inhibition effect | 67.2% | 90.5% | 87.7% | 88.5% | 79.8% | 118% | 67.5% | 96.6% | 117% | 57.2% | 61% | 90.1% | 
CC(=O)SCC(Cc1ccccc1)C(=O)NCC(=O)OCc1ccccc1 (stereo not shown) [Racecadotril (Acetorphan), Racecadotril] | 88.8% | 108% | 107% | 82.9% | 65.6% | 95.8% | 84% | significant inhibition effect | 74.5% |  |  |  |  |  |  |  |  |  |  |  | viability at 10 µM [9, 21]: 97.4%; viability at 10 µM [10, 22]: 122%; viability at 10 µM [12, 24]: 66.2%; viability at 10 µM [13, 25]: 65.6%
Cc1cn([C@@H]2C[C@@H](O)[C@H](CO)O2)c(=O)[nH]c1=O [Telbivudine (Sebivo, Tyzeka), Telbivudine] |  |  |  |  |  |  |  | significant inhibition effect | 65.3% | 94.4% | 31.9% | 53.6% | 67.5% | 51.9% | 43.7% | 27.5% | 36.2% | 100% | 57.5% | 50.4% | 
C[C@@H](O)[C@H]1C(=O)N2C(C(=O)O)=C(S[C@@H]3CN[C@H](C(=O)N(C)C)C3)[C@H](C)[C@H]12 [Meropenem] | 99.3% | 68.1% | 70.7% | 55.4% | 111% | 46% | 68.3% | significant inhibition effect | 87.3% |  |  |  |  |  |  |  |  |  |  |  | viability at 10 µM [9, 21]: 84.9%; viability at 10 µM [10, 22]: 102%; viability at 10 µM [12, 24]: 65.1%; viability at 10 µM [13, 25]: 132%
COc1cccc(N(C)C(=S)Oc2ccc3c(c2)CCCC3)n1 [Liranaftate] |  |  |  |  |  |  |  | significant inhibition effect |  |  |  |  |  |  |  |  |  |  |  |  | viability at 10 µM [1, 37]: 79.8%; viability at 10 µM [2, 38]: 84.8%; viability at 10 µM [3, 39]: 92.7%; viability at 10 µM [4, 40]: 50.7%; viability at 10 µM [5, 41]: 89%; viability at 10 µM [6, 42]: 67.1%; viability at 10 µM [7, 43]: 73.6%; viability at 10 µM [9, 44]: 76.7%; viability at 10 µM [10, 45]: 92%; viability at 10 µM [11, 46]: 86.6%; viability at 10 µM [12, 47]: 84.5%; viability at 10 µM [13, 48]: 108%
O=C(Nc1ccccc1)c1ccccc1O [Salicylanilide] |  |  |  |  |  |  |  | significant inhibition effect |  |  |  |  |  |  |  |  |  |  |  |  | viability at 10 µM [1, 37]: 97.2%; viability at 10 µM [2, 38]: 106%; viability at 10 µM [3, 39]: 89.7%; viability at 10 µM [4, 40]: 80.5%; viability at 10 µM [5, 41]: 118%; viability at 10 µM [6, 42]: 62.1%; viability at 10 µM [7, 43]: 77.8%; viability at 10 µM [9, 44]: 83.5%; viability at 10 µM [10, 45]: 71.1%; viability at 10 µM [11, 46]: 86.2%; viability at 10 µM [12, 47]: 92.8%; viability at 10 µM [13, 48]: 108%
